Laboratory results as given in patent US9777301B2, “Method for producing optically active amine compounds by deracemization” (INDUSTRY-ACADEMIC COOPERATION FOUNDATION, YONSEI UNIVERSITY, priority 2012, dated 2017).
Entries after “also recorded” stand apart in the source; their conditions may differ. Marks after values point to notes of the source that are not given here.

What was measured:
[1] = test system: (S)-selective ω-transaminase derived from O. anthropi; test: Substrate specificity of ω-transaminase toward 11 racemic amines (initial rate, relative reactivity); format: biochemical, Ochrobactrum anthropi; details: for Relative reactivity (%): PLP 0.1 mM, 10 min, activity toward α-methylbenzylamine defined as 100%; for Activity toward (S)-1-aminoindane relative to (S)-α-methylbenzylamine: (S)-enantiomer compared with (S)-α-methylbenzylamine, value in parentheses in Table 13
Procedure: An investigation was made as to the substrate specificities of the (S)-selective ω-transaminase derived from O. anthropi, which was purified in Example 7, toward 11 amines: α-methylbenzylamine 1a, 4-fluoro-α-methylbenzylamine 1b, α-ethylbenzylamine 1c, 1-methyl-3-phenylpropylamine 1d, 1-aminoindane 1e, sec-butylamine 1f, cyclopropylethylamine 1g, 2-aminopentane 1h, 2-aminooctane 1i, 1-methoxy-2-propylamine 1j, and alaninol 1k. 0.125 U/ml of the (S)-selective transaminase derived from O. anthropi was added to each racemic amine (10 mM), pyruvate (10 mM), PLP (0.1 mM), and phosphate buffer (50 mM, pH 7.5) at 37° C. After the mixture was allowed to react for 10 min, the amount of L-alanine produced was measured via GITC derivatization. All activities were measured in the initial reaction rate range of ≦5% conversion. The initial reaction rate for α-methylbenzylamine was measured to be 0.033 mM/min. When the activity of the ω-transaminase toward α-methylbenzylamine was defined as 100%, the activities of the ω-transaminase toward 4-fluoro-α-methylbenzylamine 1b, α-ethylbenzylamine 1c, 1-methyl-3-phenylpropylamine 1d, and 1-aminoindane 1e as arylalkylamines were 91%, 18%, 70%, and 64%, respectively. The activity of the ω-transaminase toward (S)-1-aminoindane was 153% of that toward (S)-α-methylbenzylamine. The activities of the ω-transaminase toward sec-butylamine 1f, cyclopropylethylamine 1g, 2-aminopentane 1h, 2-aminooctane 1i, 1-methoxy-2-propylamine 1j, and alaninol 1k as alkylamines were 54%, 63%, 29%, 146%, 60%, and 63%, respectively.

[2] = test system: (S)-selective ω-transaminase derived from O. anthropi; format: biochemical, Ochrobactrum anthropi; details: for Activity of (S)-selective ω-transaminase toward amine (in words): Table 10, speaks of the (S)-selective ω-transaminase without naming O. anthropi or P. denitrificans; for L-alanine (mM) O. anthropi: amine 20 mM (40 mM racemic sec-butylamine), pyruvate as acceptor, 50 mM potassium phosphate pH 7, 37° C., 10 min
Procedure: (§1) The substrate specificity of the (S)-selective ω-transaminase was confirmed in each amine (20 mM), (S)-amine (20 mM, in 40 mM racemic sec-butylamine) and potassium phosphate (50 mM, pH 7). After the reactions were carried out at 37° C. for 10 min, the amounts of L-alanine produced were measured.

[3] = test system: (S)-selective ω-transaminase derived from P. denitrificans; test: Substrate specificity of (S)-selective ω-transaminase toward amines (L-alanine from pyruvate); format: biochemical, Paracoccus denitrificans; details: amine 20 mM (40 mM racemic sec-butylamine), pyruvate as acceptor, 50 mM potassium phosphate pH 7, 37° C., 10 min
Procedure: as §1

[4] = test system: D-amino acid transaminase; test: Substrate specificity of purified D-amino acid transaminase toward keto acids (amino acceptors); format: biochemical, Bacillus sphaericus; details: for Pyruvate (mM) generated: D-alanine 20 mM as amino donor; for Activity of D-amino acid transaminase toward amino acceptor (in words): Tables 7 and 8
Procedure: Each of amino acceptors shown in Tables 7 and 8 and D-alanine or D-homoalanine as substrates were allowed to react with the D-amino acid transaminase purified in Example 7. Specifically, each amino acceptor (20 mM), D-alanine or D-homoalanine (20 mM), and potassium phosphate (50 mM, pH 7) were allowed to react with 0.1 U/ml of the D-amino acid transaminase at 37° C. for 10 min, and the amount of a keto acid (pyruvate or 2-oxobutyrate) generated was measured.

[5] = test system: (S)-selective ω-transaminase derived from O. anthropi; test: Substrate specificity of (S)-selective ω-transaminase toward keto acids; format: biochemical, Ochrobactrum anthropi; details: for Acetophenone (mM) O. anthropi: keto acid 20 mM, (S)-α-methylbenzylamine 20 mM, 50 mM potassium phosphate pH 7, 37° C., 10 min; for Activity of (S)-selective ω-transaminase toward keto acid (in words): Table 9, speaks of the (S)-selective ω-transaminase without naming O. anthropi or P. denitrificans
Procedure: (§2) The substrate specificity of the (S)-selective ω-transaminase was confirmed in each keto acid (20 mM), (S)-α-methylbenzylamine (20 mM) and potassium phosphate (50 mM, pH 7). After the reactions were carried out at 37° C. for 10 min, the amounts of acetophenone produced were measured.

[6] = test system: (S)-selective ω-transaminase derived from P. denitrificans; test: as above; format: biochemical, Paracoccus denitrificans; details: for Acetophenone (mM) P. denitrificans: keto acid 20 mM, (S)-α-methylbenzylamine 20 mM, 50 mM potassium phosphate pH 7, 37° C., 10 min
Procedure: as §2

[7] = racemic amine 10 mM, pyruvate 10 mM, 0.125 U/ml enzyme, pH 7.5, 37° C.
[8] = amino acceptor 20 mM, 0.1 U/ml enzyme, 50 mM potassium phosphate pH 7, 37° C., 10 min

| SMILES | Relative reactivity (%) [1, 7] | Pyruvate (mM) generated [4, 8] | Acetophenone (mM) O. anthropi [5] | Acetophenone (mM) P. denitrificans [6] | Activity of D-amino acid transaminase toward amino acceptor (in words) [4] | other results |
| --- | --- | --- | --- | --- | --- | --- |
| CC(N)c1ccccc1 (racemic) [Substrate 1a, α-methylbenzylamine] | 100^c % | – | – | – | – | Initial reaction rate ([1]; racemic amine 10 mM, pyruvate 10 mM, 0.125 U/ml enzyme, pH 7.5, 37° C., ≦5% conversion): 0.033 mM/min |
| CC(N)c1ccc(F)cc1 (racemic) [Substrate 1b, 4-fluoro-α-methylbenzylamine] | 91% | – | – | – | – | – |
| CCC(N)c1ccccc1 (racemic) [Substrate 1c, α-ethylbenzylamine] | 18% | – | – | – | – | – |
| CC(N)CCc1ccccc1 (racemic) [Substrate 1d, 1-methyl-3-phenylpropylamine] | 70% | – | – | – | – | – |
| NC1CCc2ccccc21 (racemic) [Substrate 1e, 1-aminoindane] | 64% | – | – | – | – | Activity toward (S)-1-aminoindane relative to (S)-α-methylbenzylamine [1]: 153% |
| CCC(C)N (racemic) [Substrate 1f, sec-butylamine] | 54% | – | – | – | – | Activity of (S)-selective ω-transaminase toward amine (in words) [2]: have activity; L-alanine (mM) O. anthropi [2]: 0.164 ± 0.019 mM; L-alanine (mM) P. denitrificans [3]: 0.000 ± 0.000 mM |
| CCCC(C)N (racemic) [Substrate 1h, 2-aminopentane] | 29% | – | – | – | – | – |
| CCCCCCC(C)N (racemic) [Substrate 1i, 2-aminooctane] | 146% | – | – | – | – | – |
| COCC(C)N (racemic) [Substrate 1j, 1-methoxy-2-propylamine] | 60% | – | – | – | – | – |
| O=C(O)C(=O)C12CC3CC(CC(O)(C3)C1)C2 [2-(3-Hydroxy-1-adamantyl)-oxoethanoate] | – | 0.000 mM | -0.002 mM | -0.004 mM | – | – |
| CCCCC(=O)C(=O)O [2-Ketohexanoate] | – | 0.531 mM | 0.006 mM | 0.713 mM | have activity | Activity of (S)-selective ω-transaminase toward keto acid (in words) [5]: have activity |
| CCC(=O)C(=O)O [2-Oxobutyrate] | – | 1.375 mM | 0.173 mM | 0.821 mM | have activity | Activity of (S)-selective ω-transaminase toward keto acid (in words) [5]: have activity |
| CCCC(=O)C(=O)O [2-Oxopentanoate] | – | 0.882 mM | 0.078 mM | 1.032 mM | have activity | 2-Oxobutyrate (mM) generated ([4]; amino acceptor 20 mM, D-homoalanine 20 mM as amino donor, 0.1 U/ml enzyme, 50 mM potassium phosphate pH 7, 37° C., 10 min): 0.651 mM; Activity of (S)-selective ω-transaminase toward keto acid (in words) [5]: have activity |
| CC(C)C(=O)C(=O)O [3-Methyl-2-oxobutyrate] | – | 0.014 mM | -0.001 mM | -0.002 mM | have activity | – |
| CCC(C)C(=O)C(=O)O (centres unmarked) [3-Methyl-2-oxopentanoate] | – | – | 0.001 mM | -0.004 mM | – | – |
| CC(C)CC(=O)C(=O)O [4-Methyl-2-oxopentanoate] | – | 0.073 mM | 0.005 mM | 0.175 mM | have activity | Activity of (S)-selective ω-transaminase toward keto acid (in words) ([6]; Table 9, marked (P. denitrificans)): have activity |
| N[C@H]1CCc2ccccc21 [(S)-1-aminoindane] | – | – | – | – | – | Activity toward (S)-1-aminoindane relative to (S)-α-methylbenzylamine [1]: 153% |
| C[C@H](N)c1ccccc1 [(S)-α-methylbenzylamine] | – | – | – | – | – | Activity of (S)-selective ω-transaminase toward amine (in words) [2]: have activity; L-alanine (mM) O. anthropi [2]: 0.715 ± 0.082 mM; L-alanine (mM) P. denitrificans [3]: 0.451 ± 0.077 mM |
| O=C(O)C(=O)CF [Fluoropyruvate] | – | 0.053 mM | 0.554 mM | 0.339 mM | have activity | Activity of (S)-selective ω-transaminase toward keto acid (in words) [5]: have activity |
| O=CC(=O)O [Glyoxylate] | – | – | 1.733 mM | 1.076 mM | – | Activity of (S)-selective ω-transaminase toward keto acid (in words) [5]: have activity |
| CC(C)N [Isopropylamine] | – | – | – | – | – | Activity of (S)-selective ω-transaminase toward amine (in words) [2]: have activity; L-alanine (mM) O. anthropi [2]: 0.309 ± 0.050 mM; L-alanine (mM) P. denitrificans [3]: 0.033 ± 0.002 mM |
| O=C(O)C(=O)CS [Mercaptopyruvate] | – | 0.022 mM | 0.012 mM | 0.008 mM | have activity | – |
| O=CC(=O)Oc1ccccc1 [Phenyl glyoxylate] | – | 0.000 mM | -0.005 mM | -0.008 mM | – | – |
| CC(N)CO (centres unmarked) [Substrate 1k, alaninol] | 63% | – | – | – | – | – |
| CC(C)(C)C(=O)C(=O)O [Trimethylpyruvate] | – | 0.000 mM | -0.002 mM | -0.004 mM | – | – |
| O=C(O)CCC(=O)C(=O)O [α-Ketoglutarate] | – | 0.971 mM | -0.001 mM | -0.003 mM | have activity; also recorded: had activity | Activity of (S)-selective ω-transaminase toward keto acid (in words) [5]: no activity |
| O=C(O)C(=O)CO [β-Hydroxypyruvate] | – | 0.079 mM | 0.183 mM | 0.066 mM | have activity | Activity of (S)-selective ω-transaminase toward keto acid (in words) [5]: have activity |
